Assay results published in patent US20120135995A1, “FUNGICIDAL DIPHENYL-SUBSTITUTED PYRIDAZINES” (E.I. Dupont de Nemours and Company, priority 2009, published 2012).

Tests used:
Format in all cases: in vivo
[1] = test system: Botrytis cinerea; assay: Test A: tomato seedlings sprayed, next day inoculated with Botrytis cinerea (tomato Botrytis), visual disease rating; details: sprayed day before inoculation; for pest or weed control at 200 ppm / pest or weed control at 40 ppm: Botrytis cinerea; for pest or weed control at 200 ppm / Test A rating (disease control): 200 ppm test suspension; for pest or weed control at 40 ppm: 40 ppm test suspension (*)
Description: (§1) General protocol for preparing test suspensions for Tests A-F: the test compounds were first dissolved in acetone in an amount equal to 3% of the final volume and then suspended at the desired concentration (in ppm) in acetone and purified water (50/50 mix) containing 250 ppm of the surfactant Trem® 014 (polyhydric alcohol esters). The resulting test suspensions were then used in Tests A-F. Spraying a 200 ppm test suspension to the point of run-off on the test plants was the equivalent of a rate of 500 g/ha. An asterisk “*” next to the rating value indicates a 40 ppm test suspension.
The test suspension was sprayed to the point of run-off on tomato seedlings. The following day the seedlings were inoculated with a spore suspension of Botrytis cinerea (the causal agent of tomato Botrytis) and incubated in saturated atmosphere at 20° C. for 48 h, and then moved to a growth chamber at 24° C. for 3 days, after which time visual disease ratings were made.
(§2) Results for Tests A-F are given in Table A. In the Table, a rating of 100 indicates 100% disease control and a rating of 0 indicates no disease control (relative to the controls). A dash (-) indicates no test results. All results are for 200 ppm except where followed by “*”, which indicates 40 ppm.

[2] = test system: Alternaria solani; assay: Test B: tomato seedlings sprayed, next day inoculated with Alternaria solani (tomato early blight), visual disease rating; details: sprayed day before inoculation; for pest or weed control at 200 ppm / pest or weed control at 40 ppm: Alternaria solani; for pest or weed control at 200 ppm / Test B rating (disease control): 200 ppm test suspension; for pest or weed control at 40 ppm: 40 ppm test suspension (*)
Description: as §1
The test suspension was sprayed to the point of run-off on tomato seedlings. The following day the seedlings were inoculated with a spore suspension of Alternaria solani (the causal agent of tomato early blight) and incubated in a saturated atmosphere at 27° C. for 48 h, and then moved to a growth chamber at 20° C. for 5 days, after which time visual disease ratings were made.
as §2

[3] = test system: Septoria nodorum; assay: Test C: wheat seedlings sprayed, next day inoculated with Septoria nodorum (wheat glume blotch), visual disease rating; details: sprayed day before inoculation; for pest or weed control at 200 ppm / pest or weed control at 40 ppm: Parastagonospora nodorum; for pest or weed control at 200 ppm / Test C rating (disease control): 200 ppm test suspension; for pest or weed control at 40 ppm: 40 ppm test suspension (*)
Description: as §1
(§3) The test suspension was sprayed to the point of run-off on wheat seedlings. The following day the seedlings were inoculated with a spore suspension of Septoria nodorum (the causal agent of wheat glume blotch) and incubated in a saturated atmosphere at 24° C. for 48 h, and then moved to a growth chamber at 20° C. for 6 days, after which time visual disease ratings were made.
as §2

[4] = test system: Septoria tritici; assay: Test D: wheat seedlings sprayed, next day inoculated with Septoria tritici (wheat leaf blotch), visual disease rating; details: sprayed day before inoculation; for pest or weed control at 200 ppm / pest or weed control at 40 ppm: Zymoseptoria tritici; for pest or weed control at 200 ppm / Test D rating (disease control): 200 ppm test suspension; for pest or weed control at 40 ppm: 40 ppm test suspension (*)
Description: as §1
as §3, with “tritici” for “nodorum”, “leaf” for “glume”, “in” for “in a”, “19” for “6”
as §2

[5] = test system: Puccinia recondita f. sp. tritici; assay: Test E2: wheat seedlings sprayed, next day inoculated with Puccinia recondita f. sp. tritici (wheat leaf rust), visual disease rating; details: sprayed day before inoculation; for pest or weed control at 200 ppm / pest or weed control at 40 ppm: Puccinia recondita; for pest or weed control at 200 ppm / Test E2 rating (disease control): 200 ppm test suspension; for pest or weed control at 40 ppm: 40 ppm test suspension (*)
Description: as §1
as §3, with “Puccinia recondita f. sp. tritici” for “Septoria nodorum”, “leaf rust)” for “glume blotch)”, “20°” for “24°”, “24” for “48”, “7” for “6”
as §2

[6] = test system: Erysiphe graminis; assay: Test F: wheat seedlings sprayed, next day inoculated with Erysiphe graminis (wheat powdery mildew), visual disease rating; details: sprayed day before inoculation; for pest or weed control at 200 ppm / pest or weed control at 40 ppm: Blumeria graminis; for pest or weed control at 200 ppm / Test F rating (disease control): 200 ppm test suspension; for pest or weed control at 40 ppm: 40 ppm test suspension (*)
Description: as §1
The test suspension was sprayed to the point of run-off on wheat seedlings. The following day the seedlings were inoculated with a spore dust of Erysiphe graminis, (the causal agent of wheat powdery mildew) and incubated in a growth chamber at 20° C. for 8 days, after which time visual disease ratings were made.
as §2

SMILES | pest or weed control at 40 ppm [1] | pest or weed control at 40 ppm [2] | pest or weed control at 40 ppm [3] | pest or weed control at 40 ppm [4] | pest or weed control at 40 ppm [5] | pest or weed control at 40 ppm [6] | Test A rating (disease control) [1] | Test B rating (disease control) [2] | Test C rating (disease control) [3] | Test D rating (disease control) [4] | Test E2 rating (disease control) [5] | Test F rating (disease control) [6] | other results
COc1cc(OC)cc(-c2cnnc(C)c2-c2c(F)cc(F)cc2F)c1 [Compound 6, 5-(3,5-dimethoxyphenyl)-3-methyl-4-(2,4,6-trifluorophenyl)pyridazine] |  |  |  |  |  |  |  |  |  |  |  |  | pest or weed control at 200 ppm [1]: 97%; pest or weed control at 200 ppm [2]: 100%; pest or weed control at 200 ppm [3]: 96%; pest or weed control at 200 ppm [4]: 93%; pest or weed control at 200 ppm [5]: 100%; pest or weed control at 200 ppm [6]: 100%
COc1cc(OC)cc(-c2c(Cl)nnc(C)c2-c2c(F)cccc2F)c1 [Compound 4, 3-chloro-4-(3,5-dimethoxyphenyl)-6-methyl-5-(2,6-difluorophenyl)pyridazine] |  |  |  |  |  |  |  |  |  |  |  |  | pest or weed control at 200 ppm [1]: 95%; pest or weed control at 200 ppm [2]: 97%; pest or weed control at 200 ppm [3]: 0%; pest or weed control at 200 ppm [4]: 98%; pest or weed control at 200 ppm [5]: 100%; pest or weed control at 200 ppm [6]: 95%
COc1cc(OC)cc(-c2c(C)nnc(Cl)c2-c2c(F)ccc(F)c2F)c1 [Compound 15, 3-chloro-5-(3,5-dimethoxyphenyl)-6-methyl-4-(2,3,6-trifluorophenyl)pyridazine] |  |  |  |  |  |  |  |  |  |  |  |  | pest or weed control at 200 ppm [1]: 100%; pest or weed control at 200 ppm [2]: 100%; pest or weed control at 200 ppm [3]: 84%; pest or weed control at 200 ppm [4]: 99%; pest or weed control at 200 ppm [5]: 100%; pest or weed control at 200 ppm [6]: 99%
COc1cc(OC)cc(-c2c(C)nnc(Cl)c2-c2c(F)cc(OC)cc2F)c1 [Compound 10, 3-chloro-4-(2,6-difluoro-4-methoxyphenyl)-5-(3,5-dimethoxyphenyl)-6-methylpyridazine] | 100% | 100% | 98% | 99% | 100% | 99% |  |  |  |  |  |  | 
COc1cc(OC)cc(-c2c(Cl)nnc(C)c2-c2c(F)cc(F)cc2F)c1 [Compound 12, 3-chloro-4-(3,5-dimethoxyphenyl)-6-methyl-5-(2,4,6-trifluorophenyl)pyridazine] | 99% | 100% | 99% | 99% | 100% | 100% |  |  |  |  |  |  | 
COc1cc(OC)c(Cl)c(-c2c(C)nnc(Cl)c2-c2c(F)cccc2F)c1 [Compound 28] |  |  |  |  |  |  | 100% | 100% | 78% | 100% | 100% | 100% | 
COc1cc(OC)cc(-c2cnnc(CCl)c2-c2c(F)cc(F)cc2F)c1 [Compound 7, 3-(chloromethyl)-5-(3,5-dimethoxyphenyl)-4-(2,4,6-trifluorophenyl)-pyridazine] |  |  |  |  |  |  |  |  |  |  |  |  | pest or weed control at 200 ppm [1]: 91%; pest or weed control at 200 ppm [2]: 26%; pest or weed control at 200 ppm [3]: 94%; pest or weed control at 200 ppm [4]: 96%; pest or weed control at 200 ppm [5]: 98%; pest or weed control at 200 ppm [6]: 99%
COc1cc(OC)cc(-c2c(C)nnc(C)c2-c2c(F)cc(OC)cc2F)c1 [Compound 11, 4-(2,6-difluoro-4-methoxyphenyl)-5-(3,5-dimethoxyphenyl)-3,6-dimethylpyridazine] | 100% | 100% | 99% | 100% | 100% | 100% |  |  |  |  |  |  | 
COc1ccc(-c2c(C)nnc(Cl)c2-c2cc(OC)cc(OC)c2)cc1 [Compound 2] |  |  |  |  |  |  | 95% | 58% | 0% | 62% | 74% | 26% | 
COc1cc(OC)cc(-c2c(Cl)nnc(C)c2-c2ccc(Cl)cc2)c1 [Compound 1] |  |  |  |  |  |  | 0% | 0% | 0% | 0% | 0% | 0% | 
COc1cc(OC)cc(-c2c(C)nnc(Cl)c2-c2c(F)cc(F)cc2F)c1 [Compound 8, 3-chloro-5-(3,5-dimethoxyphenyl)-6-methyl-4-(2,4,6-trifluorophenyl)-pyridazine] | 100% | 100% | 100% | 99% | 100% | 99% |  |  |  |  |  |  | 
COc1cc(OC)cc(-c2c(Cl)nnc(C)c2-c2ccc(F)cc2F)c1 [Compound 3] |  |  |  |  |  |  | 91% | 31% | 0% | 97% | 97% | 79% | 
COc1cc(OC)cc(-c2c(C)nnc(C)c2-c2c(F)ccc(F)c2F)c1 [Compound 17, 4-(3,5-dimethoxyphenyl)-3,6-dimethyl-5-(2,3,6-trifluorophenyl)pyridazine] |  |  |  |  |  |  |  |  |  |  |  |  | pest or weed control at 200 ppm [1]: 100%; pest or weed control at 200 ppm [2]: 100%; pest or weed control at 200 ppm [3]: 99%; pest or weed control at 200 ppm [4]: 99%; pest or weed control at 200 ppm [5]: 100%; pest or weed control at 200 ppm [6]: 100%
COc1cc(OC)c(Cl)c(-c2c(C)nnc(C)c2-c2c(F)cccc2F)c1Cl [Compound 34] |  |  |  |  |  |  | 100% | 0% | 0% | 100% | 100% | 97% | 
COc1cc(OC)cc(-c2c(C)nnc(C)c2-c2c(F)cccc2F)c1 [Compound 31] |  |  |  |  |  |  | 100% | 99% | 100% | 100% | 99% | 98% | 
COc1cc(OC)cc(-c2c(Cl)nnc(C)c2-c2ccc(F)cc2)c1 [Compound 13] |  |  |  |  |  |  | 8% | 0% | 0% | 45% | 19% | 39% | 
COc1cc(OC)cc(-c2c(C)nnc(C)c2-c2c(F)cc(F)cc2F)c1 [Compound 9, 4-(3,5-dimethoxyphenyl)-3,6-dimethyl-5-(2,4,6-trifluorophenyl)pyridazine] | 100% | 99% | 100% | 100% | 100% | 100% |  |  |  |  |  |  | 
COc1cc(OC)cc(-c2c(C(C)(C)O)nnc(C)c2-c2c(F)cc(F)cc2F)c1 [Compound 21, 4-(3,5-dimethoxyphenyl)-α,α,6-trimethyl-5-(2,4,6-trifluorophenyl)-3-pyridazinemethanol] | 100% | 99% | 40% | 98% | 100% | 100% |  |  |  |  |  |  | 
COc1cc(OC)c(Cl)c(-c2c(C)nnc(Cl)c2-c2c(F)cc(F)cc2F)c1 [Compound 23, 3-chloro-5-(2-chloro-3,5-dimethoxyphenyl)-6-methyl-4-(2,4,6-trifluoro-phenyl)pyridazine] | 100% | 100% | 100% | 100% | 100% | 100% |  |  |  |  |  |  | 
